Measured values taken from US11192914B2, “Alkyne containing nucleotide and nucleoside therapeutic compositions and uses related thereto” (Emory University, priority 2016, dated 2021).
Where two headings read alike, the source gives them in different places.

Key:
[1] = target: T1, ZIKV NS5 RdRp (Zika virus, UniProt Q32ZE1); assay type: biochemical; settings: analog triphosphates against ZIKV NS5 RdRp
T1 construct: activity of select analog triphosphates against the ZIKV NS5 RdRp

[2] = test system: ZIKV; assay: ZIKV infectious (cytoprotection, XTT) assay; assay type: cell-based, Zika virus; settings: read-out: ZIKV EC50
Method: (§1) Vero cells were passaged in DMEM medium in T-75 flasks prior to use in the antiviral assay. On the day preceding the assay, the cells were split 1:2 to assure they were in exponential growth phase at the time of infection. The cells were resuspended at […] cells per well in tissue culture medium and added to flat bottom microtiter plates in a volume of […]. The plates were incubated at 37° C./5% CO2 overnight to allow for cell adherence. Separately, Zika virus was titrated in LLCMK2 cells to define the inoculum for use in the antiviral assay. Virus was diluted in DMEM medium such that the amount of virus added to each well in a volume of […] was the amount determined to achieve 85 to 95% cell killing at 5 days post-infection. Following incubation test plates were stained with XTT dye. XTT solution was prepared daily as a stock solution of 1 mg/mL in RPM11640. PMS solution was prepared at 0.15 mg/mL in PBS and stored in the dark at −20° C. XTT/PMS stock was prepared immediately before use by adding […] of PMS per mL of XTT solution. Fifty microliters of XTT/PMS was added to each well of the plate, and the plate was reincubated for 4 hours at 37° C. Plates were sealed with adhesive plate sealers ad shaken gently to mix the soluble formazan product, and the plate was read spectrophotometrically read 450/650 nm with a Molecular Devices Vmax plate reader. The raw data was collected from Softmax Pro and imported into a Microsoft Excel XLfit4 spreadsheet for analysis using four parameter curve fit calculations.

[3] = Cytotoxicity in Vero cells (XTT); assay type: cell-based, African green monkey; settings: African green monkey
Method: as §1

[4] = test system: ZIKV; assay: ZIKV infectious (cytoprotection, XTT) assay; assay type: cell-based; settings: Zika virus
[5] = test system: Vero cells; assay: Cytotoxicity in Vero cells (XTT); assay type: cell-based, African green monkey
Method: as §1

[6] = test system: DENV2 New Guinea C; assay: Anti-Dengue virus cytoprotection assay; assay type: cell-based, Dengue virus type 2
Method: Cell Preparation—BHK21 cells (Syrian golden hamster kidney cells, ATCC catalog #CCL-I 0), Vero cells (African green monkey kidney cells, ATCC catalog #CCL-81), or Huh-7 cells (human hepatocyte carcinoma) were passaged in DMEM supplemented with 10% FBS, 2 mM L-glutamine, 100 U/mL penicillin, and 100 μg/mL streptomycin in T-75 flasks prior to use in the antiviral assay. On the day preceding the assay, the cells were split 1:2 to assure they were in an exponential growth phase at the time of infection. Total cell and viability quantification was performed using a hemocytometer and Trypan Blue dye exclusion. Cell viability was greater than 95% for the cells to be utilized in the assay. The cells were resuspended at 3×10^3 ([…] for Vero cells and Huh-7 cells) cells per well in tissue culture medium and added to flat bottom microtiter plates in a volume of 100 μL. The plates were incubated at 37° C./5% CO2 overnight to allow for cell adherence.
Virus Preparation—The Dengue virus type 2 New Guinea C strain was obtained from ATCC (catalog #VR-1584) and was grown in LLC-MK2 (Rhesus monkey kidney cells; catalog #CCL-7.1) cells for the production of stock virus pools. An aliquot of virus pretitered in BHK21 cells was removed from the freezer (−80° C.) and allowed to thaw slowly to room temperature in a biological safety cabinet. Virus was resuspended and diluted into assay medium (DMEM supplemented with 2% heat-inactivated FBS, 2 mM L-glutamine, 100 U/mL penicillin, and 100 μg/mL streptomycin) such that the amount of virus added to each well in a volume of 100 μL was the amount determined to yield 85 to 95% cell killing at 6 days post-infection.
Plate Format—Each plate contains cell control wells (cells only), virus control wells (cells plus virus), triplicate drug toxicity wells per compound (cells plus drug only), as well as triplicate experimental wells (drug plus cells plus virus).
Efficacy and Toxicity XTT-Following incubation at 37° C. in a 5% CO2 incubator, the test plates were stained with the tetrazolium dye XTT (2,3-bis(2-methoxy-4-nitro-5-sulfophenyl)-5-[(phenylamino)carbonyl]-2H-tetrazolium hydroxide). XTT-tetrazolium was metabolized by the mitochondrial enzymes of metabolically active cells to a soluble formazan product, allowing rapid quantitative analysis of the inhibition of virus-induced cell killing by antiviral test substances. XTT solution was prepared daily as a stock of 1 mg/mL in RPMI 1640. Phenazine methosulfate (PMS) solution was prepared at 0.15 mg/mL in PBS and stored in the dark at −20° C. XTT/PMS stock was prepared immediately before use by adding 40 μL of PMS per ml of XTT solution. Fifty microliters of XTT/PMS was added to each well of the plate and the plate was reincubated for 4 hours at 37° C. Plates were sealed with adhesive plate sealers and shaken gently or inverted several times to mix the soluble formazan product and the plate was read spectrophotometrically at 450/650 nm with a Molecular Devices Vmax plate reader.
Data Analysis —Raw data was collected from the Softmax Pro 4.6 software and imported into a Microsoft Excel spreadsheet for analysis. The percent reduction in viral cytopathic effect compared to the untreated virus controls was calculated for each compound. The percent cell control value was calculated for each compound comparing the drug treated uninfected cells to the uninfected cells in medium alone.

[7] = test system: HRV-26; assay: Human rhinovirus assay (HRV-26); assay type: cell-based; settings: Human rhinovirus sp., HRV26; Cell Line HeLa
[8] = test system: CC1(O)C(O)[C@@H](COP(=O)(O)OP(=O)(O)OP(=O)(O)O)O[C@H]1n1ccc(=O)[nH]c1=O; assay: purified protein, by the assay type; assay type: biochemical, Zika virus
[9] = test system: CC1(O)C(O)[C@@H](COP(=O)(O)OP(=O)(O)OP(=O)(O)O)O[C@H]1n1cnc2c(=O)[nH]c(N)nc21; assay: purified protein, by the assay type
[10] = test system: C#CC1(O)C(O)[C@@H](COP(=O)(O)OP(=O)(O)OP(=O)(O)O)O[C@H]1n1ccc(=O)[nH]c1=O; assay: purified protein, by the assay type
[11] = test system: C#CC1(O)C(O)[C@@H](COP(=O)(O)OP(=O)(O)OP(=O)(O)O)O[C@H]1n1cnc2c(N)ncnc21; assay: purified protein, by the assay type
[12] = test system: CC1(O)C(O)[C@@H](COP(=O)(O)OP(=O)(O)OP(=O)(O)O)O[C@H]1n1ccc(N)nc1=O; assay: purified protein, by the assay type
[13] = test system: CC1(O)C(O)[C@@H](COP(=O)(O)OP(=O)(O)OP(=O)(O)O)O[C@H]1n1cnc2c(N)ncnc21; assay: purified protein, by the assay type
[14] = Zika virus, Vero, ZIKV infectious assay, Vero cells
[15] = Zika virus, Vero, Cell Line Vero
[16] = Huh-7, Cell Line Huh-7, read-out: ZIKV EC50

T1 sequence (Q32ZE1 2517-3419): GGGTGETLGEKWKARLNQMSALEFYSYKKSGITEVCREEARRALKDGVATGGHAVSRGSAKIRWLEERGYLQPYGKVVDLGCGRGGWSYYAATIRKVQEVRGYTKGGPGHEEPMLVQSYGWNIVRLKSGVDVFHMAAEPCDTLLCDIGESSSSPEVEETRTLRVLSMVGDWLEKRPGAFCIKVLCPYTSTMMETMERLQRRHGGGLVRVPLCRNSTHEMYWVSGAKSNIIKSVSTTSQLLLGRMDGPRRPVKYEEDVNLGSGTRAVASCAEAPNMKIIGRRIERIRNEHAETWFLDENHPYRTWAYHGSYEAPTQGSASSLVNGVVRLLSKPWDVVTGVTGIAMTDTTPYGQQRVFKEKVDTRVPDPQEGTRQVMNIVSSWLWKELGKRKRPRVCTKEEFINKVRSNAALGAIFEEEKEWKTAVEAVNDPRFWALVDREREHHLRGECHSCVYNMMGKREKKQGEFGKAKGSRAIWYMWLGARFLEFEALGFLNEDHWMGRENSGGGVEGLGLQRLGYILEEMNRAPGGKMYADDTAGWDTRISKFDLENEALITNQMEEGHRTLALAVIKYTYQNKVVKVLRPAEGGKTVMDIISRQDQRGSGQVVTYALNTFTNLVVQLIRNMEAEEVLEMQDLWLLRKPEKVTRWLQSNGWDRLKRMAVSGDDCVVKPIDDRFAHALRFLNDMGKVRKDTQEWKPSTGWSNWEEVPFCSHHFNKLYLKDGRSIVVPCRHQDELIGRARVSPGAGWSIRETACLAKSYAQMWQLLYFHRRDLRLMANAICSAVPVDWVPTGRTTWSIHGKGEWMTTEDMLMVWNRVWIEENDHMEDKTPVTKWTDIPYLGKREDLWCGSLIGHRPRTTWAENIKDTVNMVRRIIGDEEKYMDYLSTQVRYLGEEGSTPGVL

**Q.** Which “ZIKV Polymerase Assay Discrimination” value [1] does the source give for `C#CC1(O)C(O)[C@@H](COP(=O)(O)OP(=O)(O)OP(=O)(O)O)O[C@H]1n1cnc2c(N)ncnc21` (some centres unmarked) here?
**A.** 5

**Q.** With `CC1(O)C(O)[C@@H](COP(=O)(O)OP(=O)(O)OP(=O)(O)O)O[C@H]1n1ccc(N)nc1=O` (some centres unmarked) as the molecule, how does the “ZIKV Polymerase Assay Discrimination” value [1] read?
**A.** 7

**Q.** For `CC1(O)C(O)[C@@H](COP(=O)(O)OP(=O)(O)OP(=O)(O)O)O[C@H]1n1cnc2c(=O)[nH]c(N)nc21` (some centres unmarked), which “ZIKV Polymerase Assay Discrimination” value [1] is on record?
**A.** 13

**Q.** Which “ZIKV Polymerase Assay Discrimination” value [1] does the source give for `CC1(O)C(O)[C@@H](COP(=O)(O)OP(=O)(O)OP(=O)(O)O)O[C@H]1n1ccc(=O)[nH]c1=O` (some centres unmarked) here?
**A.** 53

**Q.** For `CC1(O)C(O)[C@@H](COP(=O)(O)OP(=O)(O)OP(=O)(O)O)O[C@H]1n1cnc2c(N)ncnc21` (some centres unmarked), which “ZIKV Polymerase Assay Discrimination” value [1] is on record?
**A.** 12

**Q.** For `C#CC1(O)C(O)[C@@H](COP(=O)(O)OP(=O)(O)OP(=O)(O)O)O[C@H]1n1ccc(=O)[nH]c1=O` (some centres unmarked), which “ZIKV Polymerase Assay Discrimination” value [1] is on record?
**A.** 5

**Q.** With `C#CC1(O)C(O)[C@@H](CO)O[C@H]1n1ccc2c(N)ncnc21` (some centres unmarked) as the molecule, how does the EC50 [2, 14] read?
**A.** 0.34 µM

**Q.** And the CC50 at 5 days [3]?
**A.** 35.4 µM

**Q.** Which results are given for `CC1(O)C(O)[C@@H](CO)O[C@H]1n1ccc(N)nc1=O` (some centres unmarked)?
**A.** EC50 [2, 14]: 0.13 µM; CC50 at 5 days [3]: 9.57 µM

**Q.** With `CC1(O)C(O)[C@@H](CO)O[C@H]1n1cnc2c(=O)[nH]c(N)nc21` (some centres unmarked) as the molecule, how does the EC50 [2, 14] read?
**A.** 7.23 µM

**Q.** And the CC50 at 5 days [3]?
**A.** > 100 µM

**Q.** With `CC(C)(C)C(=O)OCOP(=O)(OCOC(=O)C(C)(C)C)OC[C@H]1O[C@@H](n2ccc(=O)[nH]c2=O)C(C)(O)C1O` (some centres unmarked) as the molecule, how does the EC50 [2, 14] read?
**A.** 3.57 µM

**Q.** And the CC50 at 5 days [3]?
**A.** 26.4 µM

**Q.** With `C#C[C@@]1(O)[C@H](O)[C@@H](CO)O[C@H]1n1ccc(=O)[nH]c1=O` as the molecule, how does the EC50 [2, 15] read?
**A.** > 100 µM

**Q.** What about the EC50 [4, 16] of the same molecule?
**A.** > 100 µM

**Q.** Which EC50 [4, 16] does the source give for `C#C[C@@]1(O)[C@H](O)[C@@H](CO)O[C@H]1n1cc(F)c(=O)[nH]c1=O` here?
**A.** > 100 µM

**Q.** For `C#C[C@@]1(O)[C@H](O)[C@@H](CO[P@@](=O)(N[C@@H](C)C(=O)OC(C)C)Oc2ccccc2)O[C@H]1n1cc(F)c(=O)[nH]c1=O`, which EC50 ([2]; Zika virus, Vero) is on record?
**A.** > 100 µM

**Q.** What about the EC50 ([4]; Huh-7, read-out: ZIKV EC50) of the same molecule?
**A.** 13 µM

**Q.** With `C#CC1(O)C(O)[C@@H](COP(=O)(OCOC(=O)C(C)(C)C)OCOC(=O)C(C)(C)C)O[C@H]1n1cc(F)c(=O)[nH]c1=O` (some centres unmarked) as the molecule, how does the EC50 [4, 16] read?
**A.** 5.3 µM

**Q.** Which EC50 ([2]; ZIKV infectious assay, Vero cells) does the source give for `CC1(O)C(O)[C@@H](CO)O[C@H]1n1cnc2c(N)ncnc21` (some centres unmarked) [drawing 675] here?
**A.** 2.46 µM

**Q.** And the CC50 [5]?
**A.** > 100 µM

**Q.** For `CC1(O)C(O)[C@@H](CO)O[C@H]1n1cnc2c(N)ncnc21` (some centres unmarked) [drawing 678], which EC50 [2, 14] is on record?
**A.** 2.75 µM

**Q.** And the CC50 at 5 days [3]?
**A.** > 100 µM

**Q.** With `C#CC1(O)C(O)[C@@H](COP(=O)(OCOC(=O)C(C)(C)C)OCOC(=O)C(C)(C)C)O[C@H]1n1ccc(=O)[nH]c1=O` (some centres unmarked) [drawing 679] as the molecule, how does the EC50 [2, 14] read?
**A.** 1.06 µM

**Q.** And the CC50 at 5 days [3]?
**A.** 11 µM

**Q.** For `C#C[C@@]1(O)[C@H](O)[C@@H](CO[P@@](=O)(N[C@@H](C)C(=O)OC(C)C)Oc2ccccc2)O[C@H]1n1ccc2c(N)ncnc21` [drawing 740], which EC50 ([6]; DENV2, BHK-21, read-out: DENV2 New Guinea C EC50) is on record?
**A.** 27.7 µM

**Q.** Which EC50 ([6]; DENV2, Vero, read-out: DENV2 New Guinea C EC50) does the source give for `C#C[C@@]1(O)[C@H](O)[C@@H](CO)O[C@H]1n1cnc2cnc(N)nc21` [drawing 741] here?
**A.** > 100 µM

**Q.** For `C#C[C@@]1(O)[C@H](O)[C@@H](CO[P@@](=O)(N[C@@H](C)C(=O)OC(C)C)Oc2ccccc2)O[C@H]1n1ccc(=O)[nH]c1=O` [drawing 742], which EC50 [7] is on record?
**A.** 3.22 µM

**Q.** With `C#C[C@@]1(O)[C@H](O)[C@@H](CO)O[C@H]1n1cnc2cnc(N)nc21` [drawing 743] as the molecule, how does the EC50 [7] read?
**A.** > 100 µM

**Q.** With `C#C[C@@]1(O)[C@H](O)[C@@H](CO[P@@](=O)(N[C@@H](C)C(=O)OC(C)C)Oc2ccccc2)O[C@H]1n1ccc2c(N)ncnc21` [drawing 744] as the molecule, how does the EC50 ([4]; Huh-7, read-out: ZIKV EC50) read?
**A.** 0.001 µM

**Q.** For `C#C[C@@]1(O)[C@H](O)[C@@H](CO[P@@](=O)(N[C@@H](C)C(=O)OC(C)C)Oc2ccccc2)O[C@H]1n1ccc(=O)[nH]c1=O` [drawing 746], which EC50 ([2]; Zika virus, Vero) is on record?
**A.** > 100 µM

**Q.** And the EC50 ([4]; Huh-7, read-out: ZIKV EC50)?
**A.** 0.5 µM

**Q.** For `C#C[C@@]1(O)[C@H](O)[C@@H](CO)O[C@H]1n1cnc2cnc(N)nc21` [drawing 747], which EC50 ([4]; HeLa, Cell Line HeLa, read-out: ZIKV EC50) is on record?
**A.** > 100 µM

**Q.** Which EC50 [2, 15] does the source give for `C#C[C@@]1(O)[C@H](O)[C@@H](CO)O[C@H]1n1cnc2cnc(N)nc21` [drawing 751] here?
**A.** > 100 µM

**Q.** With ZIKV NS5 RdRp (Zika virus) as the molecule, how does the Km [8] read?
**A.** 72.82 µM

**Q.** And the Km [9]?
**A.** 2.82 µM

**Q.** And the Km [10]?
**A.** 6.59 µM

**Q.** What about the Km [11] of the same molecule?
**A.** 1.26 µM

**Q.** What about the Km [12] of the same molecule?
**A.** 1.45 µM

**Q.** And the Km [13]?
**A.** 3.03 µM
